{"source": "paper PMC11755785", "about": "(Langmuir, 2025)", "key": {"[1]": {"test": "Flask-shaking 1-octanol/water partition, log D–pH profile fitted to Avdeef's diagram", "type": "physicochemical", "settings": "modified Britton–Robinson buffers pH 5–11.5, 298 K", "protocol": "The aqueous-phase solvents were prepared by mixing 25 mM KH2PO4 and 25 mM Na2HPO4 solutions in 25 mM Pi buffer. The pH was adjusted before fixing the prescribed concentrations of the acid components of the buffer. The JP1 and JP2 buffer solutions were 10 mM sodium citrate/HCl buffer (pH 1.2) and Pi buffer (pH 6.8), which were prepared in compliance with the description for solution media for the dissolution test in Japanese Pharmacopeia (JP)-implemented international harmonization. The modified Britton–Robinson universal pH buffer comprised 28.6 mM KH2PO4, 28.6 mM HBO2, and 28.6 mM NaCl, titrated with 1 M NaOH (here, modified means elimination of barbital to cancel its interaction with organic solutes). For the partition equilibrium examination, the aqueous saturated 1-octanol phase comprised 1-octanol, which was flooded with a modified Britton–Robinson buffer adjusted to the appropriate pH in advance.\nThe hydrophobic drug dissolved in the aqueous saturated 1-octanol phase was mixed with an isochoric solution of the modified Britton–Robinson buffer (pH 5–11.5), saturated with 1-octanol. Thereafter, the samples in the screw-capped vials were machine-shaken at 298 K in a thermostatic chamber for 60 min and subsequently kept stationary for 60 min; the procedure corresponds to the conventional “flask-shaking” method.[41]−[43] After settling, the pH in the aqueous phase was confirmed using pH indicator strips (MColoHast pH 0–6.0, MQuant pH 7.5–14, and MQuant pH 0–14, Merck, Germany) to be that of the adjusted pH value. Aliquots (10 μL) from the 1-octanol and the aqueous layers were injected into the HPLC instrument. The 1-octanol/water partition coefficients, log P (equivalent to log KOW), and acid dissociation constants, pKa, were optimized using curve fitting, approximated by eq 1 [drawing 1] 1 which is Avdeef’s diagram[44] derived from the Henderson–Hasselbalch expression for the equilibrium between the protonated and deprotonated species. The curve-fitting procedures used the solver module of Microsoft Excel 2016 with the implemented GRG nonlinear option. Approximate curves corresponding to these optimized parameters were drawn, and the pKa and log P values for AVB, OXB, and CUR were obtained."}, "[2]": {"test": "Phase-solubility diagram with β-CD", "protocol": "The solutions were mechanically shaken at 298 K in a thermostatic chamber, and the supernatant was sampled and filtered after passage for appropriate periods. The concentration of the drug in the supernatant was determined using HPLC.\nThe phase-solubility diagram consists of the equilibrium concentration of the guest drug as the ordinate and the total concentration of the host CD as the abscissa.[45] If a straight line and parabolic curve can be approximated on the phase-solubility diagram, then, the curves are classified as AL- and AP-types in the Higuchi and Connors catalogs, respectively.[45],[46]\nMultiple regression analysis of the measured data set to the total concentration of the host ([CD]) and its squares ([CD]^2) using eq 3 can be used to obtain the stability constants for a combination of the equimolar complex K1:1 and double-host associating complex K1:2.[45],[46] [drawing 3] 3 This is the sum of the dissociated (free) and associated (complexed) drug concentrations. Although the Benesi–Hildebrand equation with the square of the host concentration has been used for parabolic correlations, its validity remains unclear.\nThis curve is classified as the AN-type on the Higuchi and Connors catalog.[45]−[48] The curve is described by eq 4′ according to the Langmuir adsorption isotherm model.[47]−[51] To process with the linear regression analysis of ordinate ([CD]/γ) referred to abscissa ([CD]), the Hanes–Woolf expression in eq 4′ may be used [drawing 4] 4 [drawing 5] 4′ where n indicates the asymptotic concentration of the drug associated with CD (saturation, maximal γ) and K is equivalent to the drug/CD complex stability constant. […] The stoichiometry of a complex of drugs with CD is difficult to determine; the prevailing opinion is that more than one guest molecule incorporates a host molecule and that hydration or ionization of the guest regulates the solubility of the complex.[46]\nSzejtili[46] stated that, in rare cases, the ascending region at lower host concentrations is followed by a plateau region, similar to that of the AN-type saturation curve. Simultaneously, it terminates at any host concentration threshold. It is named the BS-type in the Higuchi and Connors catalog,[45]−[48] and for concentrations higher than the threshold, the guest concentration decreases along a hyperbola, probably according to the solubility product KSP.[49] To analyze this type of pattern, a hypothesis that is yet to be discussed is required.[52] […] At the threshold concentration of CD, the scale of the aggregated dispersoids transcends an upper limit, and the aggregation induces subsequent sedimentation.[52] Thus, the solubility product may be considered a property of poorly soluble aggregated dispersoids containing a tolerable amount of the drug and an excess amount of CD."}, "[3]": {"test": "Phase-solubility diagram with HP-β-CD", "type": "physicochemical", "parameters": "stability constant K1:2 with HP-β-CD: unit not given here"}, "[4]": {"test": "Photostability under solar light, UV–vis spectra", "type": "physicochemical", "settings": "solar light 4 h; 50 μM; presence or absence of β-CD", "protocol": "The photostability of the drug under solar light was evaluated using UV–vis spectral measurements. Sample solutions were exposed to solar light outdoors at a sunny location on a latitude of 35.92° N and a longitude of 139.91° E for 4 h, from 12:00 to 16:00, at an average temperature of 284.55 K."}, "[5]": {"test": "Molar absorption coefficients of 270 and 360 nm peaks (UV–vis calibrated by NMR molar ratio)", "type": "physicochemical", "excerpt": "From NMR titration, the diketo and enol forms were expected to be 15.3 and 84.7%, respectively. Therefore, the abscissae of the regression lines were condensed to the species contents, leading to the molar absorption coefficients (i.e., absorbance gradients to the molarity) for the diketo and keto-enol forms being approximately 8.1 × 10^7 and 4.3 × 10^7 L/mol. Figure S13 confirms that the molar absorption coefficients for the diketo and keto-enol forms in the isochoric acetonitrile/water solvent were approximately 13.8 × 10^7 and 3.6 × 10^7 L/mol, respectively. The obtained parameters allowed the absorbance to be converted into AVB molarity."}, "[6]": {"settings": "cited from earlier work"}, "[7]": {"settings": "25 mM Pi/NaOH buffer pH 6.8, 298 K, Figure 2, in M-1 (unit assumed)"}, "[8]": {"settings": "regression with 2-order equation, pH 6.8"}}, "data": [{"substance": "p-tert-butyl-p-methoxydibenzoylmethane [AVB]", "values": [{"measurement": "acid dissociation constant, pKa", "setting": "[1]; from log D–pH curve fitting", "result": 8.59}, {"measurement": "1-octanol/water partition coefficient, log P", "setting": "[1]; neutral form, curve fitting", "result": 4.27}, {"measurement": "stability constant K1:1 with β-CD", "setting": "[2]; [7]", "result": 1023}, {"measurement": "stability constant K1:1 with β-CD", "setting": "[2]; equimolar complex, pH 6.8", "result": 1023, "unit": "L/mol"}, {"measurement": "stability constant K1:2 with HP-β-CD", "setting": "[3]; 25 mM Pi/NaOH buffer pH 6.8, 298 K, Figure 2", "result": 40.4}, {"measurement": "stability constant K1:1 with HP-β-CD", "setting": "[3]; [7]", "result": 90.3}, {"measurement": "stability constant K1:1 with HP-β-CD (equimolar complex)", "setting": "[3]; [8]", "result": 90.3, "unit": "L/mol"}, {"measurement": "stability constant K1:2 with HP-β-CD (1:2-ratio complex)", "setting": "[3]; [8]", "result": 40.4, "unit": "L^2/mol^2"}, {"measurement": "stability under solar light compared to UVA1 irradiation", "setting": "[4]", "result": "no significant changes in stability"}, {"measurement": "molar absorption coefficient, diketo form (270 nm)", "setting": "[5]; isochoric acetonitrile/water", "result": "approximately 13.8 × 10^7 L/mol"}, {"measurement": "molar absorption coefficient, keto-enol form (360 nm)", "setting": "[5]; isochoric acetonitrile/water", "result": "~3.6e+07", "unit": "L/mol"}, {"measurement": "molar absorption coefficient, keto-enol form (360 nm)", "setting": "[5]; methanol/H2O = 7:3", "result": "~4.3e+07", "unit": "L/mol"}, {"measurement": "log Kow", "setting": "[6]; Chart 1", "result": 4.51}, {"measurement": "reported log P", "setting": "[6]", "result": 4.51}, {"measurement": "reported pKa", "setting": "[6]", "result": 9.7}, {"measurement": "partition coefficient log KOW", "setting": "[6]; introduction, reference not given", "result": 4.51}]}]}
